Results from EP2486923B1, “Histone deacetylase (HDAC) inhibiting compounds and method of making same” (Dr. Felix Jäger und Dr. Stefan Drinkuth Laborgemeinschaft …, priority 2011, dated 2012).
Read-outs that look alike come from different tables or passages of the source.

Columns and labels:
Test in all cases: Two-step fluorescence assay for determination of IC50
Assay type in all cases: biochemical
HDAC1 = HDAC1 (Homo sapiens, UniProt Q13547)
Description: (§1) In order to evaluate the inhibitory characteristics of example compounds of the invention, IC50 values were determined for such compounds. […] A two-step assay was used for this purpose.
(§2) To obtain the IC50 value for an individual compound/HDAC pair, a two-step assay can be performed based on a fluorescence signal. In principle, an ε-acetylated lysine substrate is deacetylated by histone-deacetylases in the first step. Trypsin releases detectable 7-amino-4-methylcoumarin (ex = excitation wavelength: 390 nm, em = emission wavelength: 460 nm) by cleaving the substrate at the deacetylated lysine in a subsequent reaction^[9]. The enzyme activity is inhibited by a suitable HDACi.
(§3) The obtained data are interpreted using a four parameter fit. Based on this fit, the IC50 value can be estimated. Analysis ot the data and calculation of the IC50 values was accomplished using a four-parameter logistic model protocol as previously described by Vølund^[16]. For nonlinear fits the Levenberg-Marquardt algorithm was applied^[17],[18]. […] Table 1: IC50 values in µM for synthesized compounds of the invention with a perfluorinated linker. […] HDAH = HDAC-like amidohydrolase

HDAC6 = target: T1, HDAC6 (Homo sapiens, UniProt Q9UBN7)
T1 sequence (Q9UBN7 1-1215): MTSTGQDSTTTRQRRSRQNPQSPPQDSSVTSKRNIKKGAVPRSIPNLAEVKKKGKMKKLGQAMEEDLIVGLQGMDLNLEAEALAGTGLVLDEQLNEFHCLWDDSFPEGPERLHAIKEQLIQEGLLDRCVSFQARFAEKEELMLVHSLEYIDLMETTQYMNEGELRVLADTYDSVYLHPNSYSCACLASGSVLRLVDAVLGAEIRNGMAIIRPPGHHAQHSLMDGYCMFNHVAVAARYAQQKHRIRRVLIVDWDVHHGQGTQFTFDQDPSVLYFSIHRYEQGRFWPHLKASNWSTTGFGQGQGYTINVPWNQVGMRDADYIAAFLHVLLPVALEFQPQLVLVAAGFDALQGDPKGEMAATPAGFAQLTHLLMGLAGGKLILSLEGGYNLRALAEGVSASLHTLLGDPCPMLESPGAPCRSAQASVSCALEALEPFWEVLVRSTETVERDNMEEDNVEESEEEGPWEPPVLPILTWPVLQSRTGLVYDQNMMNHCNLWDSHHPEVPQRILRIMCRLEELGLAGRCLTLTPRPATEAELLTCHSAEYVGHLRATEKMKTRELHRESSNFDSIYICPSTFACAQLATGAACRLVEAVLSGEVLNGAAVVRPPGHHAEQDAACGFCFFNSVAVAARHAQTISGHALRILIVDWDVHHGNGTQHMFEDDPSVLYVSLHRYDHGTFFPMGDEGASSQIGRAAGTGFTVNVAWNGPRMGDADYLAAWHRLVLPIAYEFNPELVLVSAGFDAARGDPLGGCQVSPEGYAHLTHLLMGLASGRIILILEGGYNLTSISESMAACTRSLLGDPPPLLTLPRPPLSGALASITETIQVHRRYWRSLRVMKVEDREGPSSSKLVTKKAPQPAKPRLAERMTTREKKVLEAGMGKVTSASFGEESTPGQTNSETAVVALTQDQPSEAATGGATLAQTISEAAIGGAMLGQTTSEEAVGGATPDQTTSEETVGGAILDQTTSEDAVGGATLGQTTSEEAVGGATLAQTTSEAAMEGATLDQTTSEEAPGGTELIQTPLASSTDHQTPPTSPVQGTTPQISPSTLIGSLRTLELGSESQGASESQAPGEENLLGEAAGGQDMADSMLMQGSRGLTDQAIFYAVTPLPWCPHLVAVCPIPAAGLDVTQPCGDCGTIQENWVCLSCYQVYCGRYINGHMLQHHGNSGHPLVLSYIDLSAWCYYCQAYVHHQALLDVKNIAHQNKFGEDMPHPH
Description: as §1, §2, §3

HDAC7 = target: T2, HDAC7 (Homo sapiens, UniProt Q8WUI4)
T2 sequence (Q8WUI4 1-952): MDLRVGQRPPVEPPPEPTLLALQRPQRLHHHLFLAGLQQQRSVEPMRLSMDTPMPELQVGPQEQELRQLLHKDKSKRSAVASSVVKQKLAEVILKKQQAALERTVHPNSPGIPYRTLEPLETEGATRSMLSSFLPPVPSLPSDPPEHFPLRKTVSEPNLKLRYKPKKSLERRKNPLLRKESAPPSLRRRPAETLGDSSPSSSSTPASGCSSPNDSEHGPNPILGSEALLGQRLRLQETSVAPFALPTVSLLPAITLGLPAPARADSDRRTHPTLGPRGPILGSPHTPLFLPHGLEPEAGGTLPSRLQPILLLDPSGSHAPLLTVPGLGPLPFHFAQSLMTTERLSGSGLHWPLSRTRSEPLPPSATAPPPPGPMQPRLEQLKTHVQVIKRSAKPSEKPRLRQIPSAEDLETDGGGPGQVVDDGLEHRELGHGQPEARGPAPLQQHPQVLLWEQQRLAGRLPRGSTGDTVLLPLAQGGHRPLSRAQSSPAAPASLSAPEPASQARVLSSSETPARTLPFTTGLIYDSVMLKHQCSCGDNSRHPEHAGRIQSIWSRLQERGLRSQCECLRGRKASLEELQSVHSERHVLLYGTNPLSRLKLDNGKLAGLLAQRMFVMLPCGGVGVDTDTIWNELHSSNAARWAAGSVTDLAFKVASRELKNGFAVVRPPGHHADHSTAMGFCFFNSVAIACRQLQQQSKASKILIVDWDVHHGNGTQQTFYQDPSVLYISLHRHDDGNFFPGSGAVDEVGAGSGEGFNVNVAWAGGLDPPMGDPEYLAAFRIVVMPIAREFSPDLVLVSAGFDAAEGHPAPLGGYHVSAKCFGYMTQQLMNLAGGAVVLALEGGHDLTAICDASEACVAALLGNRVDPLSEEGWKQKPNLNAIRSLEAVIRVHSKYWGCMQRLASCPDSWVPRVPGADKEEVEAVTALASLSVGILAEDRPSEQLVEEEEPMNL
Description: as §1, §2, §3

HDAC8 = target: T3, HDAC8 (Homo sapiens, UniProt Q9BY41)
T3 sequence (Q9BY41 1-377): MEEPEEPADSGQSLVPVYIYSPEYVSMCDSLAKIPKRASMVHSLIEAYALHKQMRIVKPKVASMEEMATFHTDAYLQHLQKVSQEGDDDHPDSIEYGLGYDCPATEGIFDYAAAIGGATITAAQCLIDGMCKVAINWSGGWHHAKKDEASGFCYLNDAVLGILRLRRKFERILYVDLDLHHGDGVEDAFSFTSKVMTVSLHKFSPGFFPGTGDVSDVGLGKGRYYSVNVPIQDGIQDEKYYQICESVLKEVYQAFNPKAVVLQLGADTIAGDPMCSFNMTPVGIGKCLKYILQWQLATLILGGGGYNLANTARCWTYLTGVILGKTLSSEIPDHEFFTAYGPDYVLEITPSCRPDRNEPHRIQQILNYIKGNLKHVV
Description: as §1, §2, §3

HDAH = target: T4, HDAH (Alcaligenes sp., UniProt Q70I53)
T4 sequence (Q70I53 1-369): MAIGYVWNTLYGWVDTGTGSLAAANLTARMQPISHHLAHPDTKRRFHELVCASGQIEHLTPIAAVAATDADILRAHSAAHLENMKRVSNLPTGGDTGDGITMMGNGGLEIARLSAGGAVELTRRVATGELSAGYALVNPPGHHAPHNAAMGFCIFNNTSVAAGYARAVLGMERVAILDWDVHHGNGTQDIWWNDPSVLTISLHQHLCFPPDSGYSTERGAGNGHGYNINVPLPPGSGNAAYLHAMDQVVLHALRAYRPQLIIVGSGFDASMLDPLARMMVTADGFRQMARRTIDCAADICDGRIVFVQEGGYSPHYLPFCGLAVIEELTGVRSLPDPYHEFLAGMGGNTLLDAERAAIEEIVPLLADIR
Description: as §1, §2, §3

[1] = ε-acetylated lysine substrate, trypsin release of 7-amino-4-methylcoumarin, four parameter fit, read-out: IC50 values HDAC1
[2] = ε-acetylated lysine substrate, trypsin release of 7-amino-4-methylcoumarin, four parameter fit, read-out: IC50 values HDAC6
[3] = ε-acetylated lysine substrate, trypsin release of 7-amino-4-methylcoumarin, four parameter fit, read-out: IC50 values HDAC8
[4] = HDAC-like amidohydrolase, ε-acetylated lysine substrate, trypsin release of 7-amino-4-methylcoumarin, four parameter fit, read-out: IC50 values HDAH
[5] = ε-acetylated lysine substrate, trypsin release of 7-amino-4-methylcoumarin, four parameter fit, read-out: IC50 values HDAC7

HDAC1, sequence (Q13547 whole entry): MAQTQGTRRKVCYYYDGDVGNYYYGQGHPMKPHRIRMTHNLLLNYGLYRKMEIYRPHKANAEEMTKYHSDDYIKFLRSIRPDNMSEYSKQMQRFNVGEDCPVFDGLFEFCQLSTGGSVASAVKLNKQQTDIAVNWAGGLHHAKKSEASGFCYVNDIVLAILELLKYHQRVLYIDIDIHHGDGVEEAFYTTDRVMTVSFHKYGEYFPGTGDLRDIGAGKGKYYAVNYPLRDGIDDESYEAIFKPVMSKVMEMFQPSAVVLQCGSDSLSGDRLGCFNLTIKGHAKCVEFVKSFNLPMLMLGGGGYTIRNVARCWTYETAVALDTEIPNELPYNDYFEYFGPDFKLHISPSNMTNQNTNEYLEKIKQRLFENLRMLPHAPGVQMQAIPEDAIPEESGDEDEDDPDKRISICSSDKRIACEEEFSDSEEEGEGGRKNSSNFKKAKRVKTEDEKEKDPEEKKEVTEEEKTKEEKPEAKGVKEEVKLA

SMILES | IC50 (HDAC1; [1]) [µM] | IC50 (HDAC6; [2]) [µM] | IC50 (HDAC7) [µM] | IC50 (HDAC8; [3]) [µM] | IC50 (HDAH; [4]) [nM] | IC50 (HDAC7; [5]) [µM] | IC50 (HDAC8) [µM] | IC50 (HDAC1) [µM] | IC50 (HDAC6) [µM] | IC50 (HDAH) [nM]
O=C(NO)C(F)(F)C(F)(F)C(F)(F)C(F)(F)C(F)(F)C(F)(F)C(=O)Nc1ccc(-c2ccccc2)cc1 [LU229, 2,2,3,3,4,4,5,5,6,6,7,7-Dodecafluorooctanedioic acid biphenyl-4-ylamide hydroxyamide] | 37.9 | 59.1 | 22 | > 100 | 780 | – | – | – | – | –
O=C(NO)C(F)(F)C(F)(F)C(F)(F)C(F)(F)C(F)(F)C(F)(F)C(=O)Nc1nc(-c2ccccc2)cs1 [LU235, 2,2,3,3,4,4,5,5,6,6,7,7-Dodecafluorooctanedioic acid hydroxyamide (4-phenylthiazol-2-yl)amide] | 3.31 | 6.47 | – | 2.1 | 5110 | 1.77 | – | – | – | –
O=C(NO)C(F)(F)C(F)(F)C(F)(F)C(F)(F)C(F)(F)C(F)(F)C(=O)Nc1ccc2ccc3cccc4ccc1c2c34 [LU234, 2,2,3,3,4,4,5,5,6,6,7,7-Dodecafluorooctanedioic acid hydroxyamide pyren-1-ylamide] | 28.3 | 20.2 | – | – | 1480 | > 100 | 77.8 | – | – | –
O=C(NO)C(F)(F)C(F)(F)C(F)(F)C(F)(F)C(F)(F)C(F)(F)C(=O)Nc1ccc(-c2cnnn2-c2ccccc2)cc1 [LU236, 2,2,3,3,4,4,5,5,6,6,7,7-Dodecafluorooctanedioic acid hydroxyamide [4-(1-phenyl-1H-[1,2,3]triazol-5-yl)phenyl]amide] | 83.1 | 56.6 | – | – | 10400 | 16.4 | > 100 | – | – | –
O=C(NO)C1CCCCC1C(=O)Nc1ccccc1 (centres unmarked) [RK216, reference compound] | – | – | > 100 | – | – | – | > 100 | > 100 | 44 | 34800
O=C(NO)C(F)(F)C(F)(F)C(F)(F)C(F)(F)C(F)(F)C(F)(F)C(=O)Nc1ccc(-c2cn(-c3ccccc3)nn2)cc1 [LU 233, 2,2,3,3,4,4,5,5,6,6,7,7-Dodecafluorooctanedioic acid hydroxyamide {4-[1-phenyl-1H-(1,2,3)triazol-4-yl]phenyl}amide] | > 100 | 9.81 | – | > 100 | 16900 | 42.2 | – | – | – | –
N#Cc1ccc(NC(=O)C(F)(F)C(F)(F)C(F)(F)C(F)(F)C(F)(F)C(F)(F)C(=O)NO)cc1 [LU225 A, 2,2,3,3,4,4,5,5,6,6,7,7-Dodecafluorooctanedioic acid (4-cyanophenyl)amide hydroxyamide] | 21.8 | > 100 | – | 73.9 | – | 53.7 | – | – | – | 700
Cc1ccc(NC(=O)C(F)(F)C(F)(F)C(F)(F)C(F)(F)C(F)(F)C(F)(F)C(=O)NO)cc1 [LU222, 2,2,3,3,4,4,5,5,6,6,7,7-Dodecafluorooctanedioic acid hydroxyamide 4-methyl-phenylamide] | 16.3 | > 100 | 84.8 | – | 860 | – | 87.6 | – | – | –
CC(=O)Nc1ccc(NC(=O)C(F)(F)C(F)(F)C(F)(F)C(F)(F)C(F)(F)C(F)(F)C(=O)NO)cc1 [LU224, 2,2,3,3,4,4,5,5,6,6,7,7-Dodecafluorooctanedioic acid (4-acetylaminophenyl)-amide hydroxyamide] | 21.8 | 10.5 | – | 76.2 | 3410 | 21.5 | – | – | – | –
CCc1cccc(NC(=O)C(F)(F)C(F)(F)C(F)(F)C(F)(F)C(F)(F)C(F)(F)C(=O)NO)c1 [LU232, 2,2,3,3,4,4,5,5,6,6,7,7-Dodecafluorooctanedioic acid (3-ethylphenyl)amide hydroxyamide] | – | – | – | 21.3 | 9180 | 4.97 | – | 19.9 | 1.55 | –
Cc1ccc(NC(=O)C(F)(F)C(F)(F)C(F)(F)C(F)(F)C(F)(F)C(F)(F)C(=O)NO)cc1C [LU228, 2,2,3,3,4,4,5,5,6,6,7,7-Dodecafluorooctanedioic acid (3,4-dimethylphenyl)-amide hydroxyamide] | – | 7.8 | 5.51 | 22.8 | 660 | – | – | 10 | – | –
O=C(NO)C(F)(F)C(F)(F)C(F)(F)C(F)(F)C(F)(F)C(F)(F)C(=O)Nc1ccccc1 [LU210, 2,2,3,3,4,4,5,5,6,6,7,7-Dodecafluorooctanedioic acid hydroxyamide phenyl-amide] | – | 12.5 | 14.8 | – | 1670 | – | – | 17.9 | – | –
